Assay results: patent publication US7361637B2, “Hypotensors” (Protein Express Co., Ltd., priority 2000, dated 2008)
Where “and” joins values, the source holds several entries; their conditions need not be identical. Equal values may be shown once.

Assays:
Format in all cases: in vivo, rat
SHR male rats = experiment: Hypotensive effect: blood pressure by carotid cannula and pressure transducer after administration to SHR; conditions: for duration of the hypotensive effect from the administration / sustained hypotension at the highest: 1 mg/kg via cannula from external carotid artery
Protocol: A group comprising three SHR male rats (12˜14 weeks age; body weight: 258˜310 g) that are pathological model animals of hypertension was used. Ab mix prepared in Example 1, P mix prepared in Example 2 and dissolved in a physiological saline, and anti-renin neutralizing antibody and captopril, which were the drugs used for comparative study, were intravenously administered at the dose of 0.44 mg/kg, 0.6 mg/kg, 0.12 mg/kg and 100 mg/kg, respectively. Measurement of blood pressure was carried out in such a manner that a cannula inserted into common carotid artery and external carotid artery was connected to a pressure transducer (P23XL; Gould Electronics) and introduced into a pressure processor signal conditioner (Gould Electronics), followed by carrying out measurement every ten minutes until 1 hour from administration of the test substance and every one hour thereafter and the data were recorded on a thermal array recorder (RS 3400; Gould Electronics). […]
A test was carried out for p 1 (pf 1-11), p 2 (pf 5-19) and p 3 (pf 27-41) prepared in Example 2 in the same manner as in Experimental Example 1 using 2 or 4 cases of SHR. The result was that, in the case of administration of 2 mg/kg of p 1, a transient hypertensive action of around 6% was noted immediately after administration, that recovered after 5 minutes from administration, then a hypotensive gradually took place thereafter to an extent of 6% at the highest and a sustained effect was confirmed until 24th hour. […] In the case of administration of 2 mg/kg of p 2, a transient hypotension of around 35% was noted immediately after administration, it recovered at 5 minutes after administration and, after that, a sustained hypotensive action was confirmed until 24th hour to an extent of around 6% at the highest. […] In the case of administration of 10 mg/kg, a hypotension of 7% was noted after 2 hours and, until 24th hour, a sustained hypotensive action where 11% was the highest was confirmed. […]

SHR [1] = experiment: Weight of heart and kidney after 14 days of administration to SHR; conditions: 1.6 mg/kg intravenously once daily for 14 days
Protocol: (§1) The p 1c (pf 5-11) prepared in Example 2 was intravenously administered once daily for consecutive 14 days at the dose of 1.6 mg/kg to a group comprising 4 SHRs. On the 14th day, the rats were killed by bleeding, followed by excising heart and kidney to measure their weights. The result is shown in Table 1 in terms of weight of the organ per 100 g of body weight.

SHR [2] = experiment: Weight of arteries after 14 days of administration to SHR; conditions: 1.6 mg/kg intravenously once daily for 14 days
Protocol: as §1, with “weight. […] Weight of each artery was calculated in terms of weight per each area, followed by further converting the calculated value into the value per body weight of each rat and the results were compared and shown in Table 2.” for “weight.”

**Q.** How did the “hypotensive action at the 24th hour (completion of the experiment)” value (SHR male rats; SHR, 100 mg/kg intravenously) turn out when `C[C@H](CS)C(=O)N1CCC[C@H]1C(=O)O` [captopril, reference compound] was run?
**A.** no hypotensive action was noted

**Q.** What about the “maximum hypotension (at the highest) until the 6th hour from the administration” value (SHR male rats; SHR, 100 mg/kg intravenously) of the same molecule?
**A.** 31%

**Q.** Which “duration of the hypotensive effect from the administration” value (SHR male rats) does the source give for “D-His-Pro-Phe-His-Leu-ψ-[CH2NH]-Leu-Val-Tyr [H 6137, reference compound]” here?
**A.** tendency of disappearance of the effect

**Q.** What about the “sustained hypotension at the highest” value (SHR male rats; at 3~8 hours after administration) of the same molecule?
**A.** 9%

**Q.** “p 1: rat prorenin profragment peptide pf 1-11 (SEQ ID NO: 9) (LPTDTASFGRI; listed as Rattus norvegicus)” was tested. Which “transient hypertension immediately after administration” value (SHR male rats; SHR, 2 mg/kg intravenously) did it give?
**A.** around 6%

**Q.** And the “sustained hypotension at the highest after recovery of the transient change” value (SHR male rats; SHR, 2 mg/kg intravenously, until 24th hour)?
**A.** 6%

**Q.** What about the “hypotension at 6 hours after administration” value (SHR male rats; SHR, 10 mg/kg intravenously) of the same molecule?
**A.** about 7%

**Q.** Which results are given for “p 1a: rat prorenin profragment peptide pf 1-4 (SEQ ID NO: 10) (LPTD; listed as Rattus norvegicus)”?
**A.** sustained hypotension at the highest until 24th hour (SHR male rats; SHR, 10 mg/kg intravenously): 13%; transient hypertension immediately after administration (SHR male rats; SHR, 10 mg/kg intravenously): 13%

**Q.** What does the source list for “p 1b: rat prorenin profragment peptide pf 1-7 (SEQ ID NO: 11) (LPTDTAS; listed as Rattus norvegicus)”?
**A.** sustained hypotension at the highest until 24th hour (SHR male rats; SHR, 10 mg/kg intravenously): 13%; transient hypertension immediately after administration (SHR male rats; SHR, 10 mg/kg intravenously): 17%

**Q.** How did the Weight of Organ, Heart, Mean Value (SHR [1]) turn out when “p 1c: rat prorenin profragment peptide pf 5-11 (SEQ ID NO: 12) (TASFGRI; listed as Rattus norvegicus)” was run?
**A.** 0.39 g/100 g body weight

**Q.** What about the Weight of Organ, Left Kidney, Mean Value (SHR [1]) of the same molecule?
**A.** 0.35 g/100 g body weight

**Q.** What about the Weight of Organ, Right Kidney, Mean Value (SHR [1]) of the same molecule?
**A.** 0.34 g/100 g body weight

**Q.** What about the Weight of Organ, Heart, individual rats (SHR [1]; 1.6 mg/kg) of the same molecule?
**A.** 0.37 g/100 g body weight and 0.4 g/100 g body weight (2×) and 0.39 g/100 g body weight

**Q.** And the Weight of Organ, Left Kidney, individual rats (SHR [1]; 1.6 mg/kg)?
**A.** 0.34 g/100 g body weight and 0.35 g/100 g body weight (3×)

**Q.** And the Weight of Organ, Right Kidney, individual rats (SHR [1]; 1.6 mg/kg)?
**A.** 0.34 g/100 g body weight and 0.35 g/100 g body weight (2×) and 0.33 g/100 g body weight

**Q.** What about the “effect on hypertrophy of heart and kidney” value (SHR [1]; compared with physiological saline) of the same molecule?
**A.** suppresses hypertrophy of heart and kidney

**Q.** And the “Weight of Artery, Femoral Artery, Mean Value” (SHR [2])?
**A.** 0.00089 mg/mm^2/g body weight

**Q.** And the “Weight of Artery, Pulmonary Artery, Mean Value” (SHR [2])?
**A.** 0.00081 mg/mm^2/g body weight

**Q.** What about the “Weight of Artery, Superior Mesenteric Artery, Mean Value” (SHR [2]) of the same molecule?
**A.** 0.00096 mg/mm^2/g body weight

**Q.** And the “Weight of Artery, Femoral Artery, individual rats” value (SHR [2]; 1.6 mg/kg)?
**A.** 0.00068 mg/mm^2/g body weight and 0.00094 mg/mm^2/g body weight and 0.00106 mg/mm^2/g body weight and 0.00087 mg/mm^2/g body weight

**Q.** And the “Weight of Artery, Pulmonary Artery, individual rats” value (SHR [2]; 1.6 mg/kg)?
**A.** 0.00067 mg/mm^2/g body weight and 0.00087 mg/mm^2/g body weight and 0.00088 mg/mm^2/g body weight and 0.00082 mg/mm^2/g body weight

**Q.** And the “Weight of Artery, Superior Mesenteric Artery, individual rats” value (SHR [2]; 1.6 mg/kg)?
**A.** 0.00094 mg/mm^2/g body weight and 0.00095 mg/mm^2/g body weight and 0.00096 mg/mm^2/g body weight and 0.001 mg/mm^2/g body weight

**Q.** What about the “effect on thickening of artery (remodeling of blood vessel)” value (SHR [2]; compared with control group) of the same molecule?
**A.** suppresses the thickening of artery

**Q.** What about the “sustained hypotension at the highest until 24th hour” value (SHR male rats; SHR, 10 mg/kg intravenously) of the same molecule?
**A.** 16%

**Q.** And the “transient hypertension immediately after administration” value (SHR male rats; SHR, 10 mg/kg intravenously)?
**A.** 21%

**Q.** What does the source list for “p 2a: rat prorenin profragment peptide pf 12-19 (SEQ ID NO: 13) (LLKKMPSV; listed as Rattus norvegicus)”?
**A.** duration of the hypotensive effect from the administration (SHR male rats): ≥ 12 h; sustained hypotension at the highest (SHR male rats; at 5~8 hours after administration): 11%; sustained hypotension at the highest until 24 hours (SHR male rats; SHR, 1 mg/kg intravenously): 14%; transient hypertension immediately after administration (SHR male rats; SHR, 1 mg/kg intravenously): 6%

**Q.** Which “sustained hypotension at the highest until 24 hours” value (SHR male rats; SHR, 1 mg/kg intravenously) does the source give for “p 2b: rat prorenin profragment peptide pf 11-15 (SEQ ID NO: 14) (ILLKK; listed as Rattus norvegicus)” here?
**A.** The same effect was achieved
